From ChEMBL document CHEMBL6074649, “An insight into recent developments in imidazole based heterocyclic compounds as anticancer agents: Synthesis, SARs, and mechanism of actions” (Eur J Med Chem, 2024)

What was measured:
[1] = system: HeLa; assay: Antiproliferative activity against human HeLa cells assessed as reduction in cell viability incubated for 72 hrs by MTT assay; format: functional, cell-based
[2] = system: HT-29; assay: Antiproliferative activity against human HT-29 cells assessed as reduction in cell viability incubated for 72 hrs by MTT assay; format: functional, cell-based; details: HT-29, 72 h
[3] = system: A549; assay: Antiproliferative activity against human A549 cells assessed as reduction in cell viability incubated for 72 hrs by MTT assay; format: functional, cell-based; details: A549, 72 h
[4] = system: MCF7; assay: Antiproliferative activity against human MCF7 cells assessed as reduction in cell viability incubated for 72 hrs by MTT assay; format: functional, cell-based; details: MCF7, 72 h
[5] = system: Jurkat; assay: Antiproliferative activity against human Jurkat cells assessed as reduction in cell viability incubated for 72 hrs by MTT assay; format: functional, cell-based
[6] = system: RS4-11; assay: Antiproliferative activity against human RS4-11 cells assessed as reduction in cell viability incubated for 72 hrs by MTT assay; format: functional, cell-based; details: RS4-11, 72 h
[7] = system: HL-60; assay: Antiproliferative activity against human HL-60 cells assessed as reduction in cell viability incubated for 72 hrs by MTT assay; format: functional, cell-based; details: HL-60, 72 h
[8] = molecular target: Tubulin; assay: Inhibition of tubulin polymerization (unknown origin); format: protein-complex assay, Homo sapiens
[9] = system: Caco-2; assay: Cytotoxicity against human Caco-2 cells assessed as reduction in cell growth incubated for 24 hrs by MTT assay; format: functional, cell-based; details: Caco-2, 24 h
[10] = system: HCT-116; assay: Cytotoxicity against human HCT-116 cells assessed as reduction in cell growth incubated for 24 hrs by MTT assay; format: functional, cell-based; details: HCT-116, 24 h
[11] = system: HeLa; assay: Cytotoxicity against human HeLa cells assessed as reduction in cell growth incubated for 24 hrs by MTT assay; format: functional, cell-based
[12] = system: MDA-MB-231; assay: Anticancer activity against human MDA-MB-231 cells assessed as reduction in cell viability measured for 24 hrs by MTT assay; format: functional, cell-based; details: MDA-MB-231, 24 h
[13] = Anticancer activity against human MCF-10A cells assessed as reduction in cell viability measured for 24 hrs by MTT assay; format: toxicity, cell-based
[14] = system: A549; assay: Antiproliferative activity against human A549 cells assessed as reduction in cell growth by MTT assay; format: functional, cell-based
[15] = system: MCF7; assay: Antiproliferative activity against human MCF7 cells assessed as reduction in cell growth by MTT assay; format: functional, cell-based
[16] = system: PANC-1; assay: Antiproliferative activity against human PANC-1 cells by MTT assay; format: functional, cell-based
[17] = system: HT-29; assay: Antiproliferative activity against human HT-29 cells assessed as reduction in cell growth by MTT assay; format: functional, cell-based
[18] = system: HCT-116; assay: Anticancer activity against human HCT-116 cells assessed as reduction in cell viability at 50 ug/ml measured for 24 hrs by MTT assay relative to control; format: functional; details: dose 50 µg/ml
[19] = system: MCF7; assay: Anticancer activity against human MCF7 cells assessed as reduction in cell viability at 50 ug/ml measured for 24 hrs by MTT assay relative to control; format: functional; details: dose 50 µg/ml
[20] = system: HFF; assay: Anticancer activity against human HFF cells assessed as reduction in cell viability at 50 ug/ml measured for 24 hrs by MTT assay relative to control; format: functional; details: dose 50 µg/ml
[21] = system: HCT-116; assay: Anticancer activity against human HCT-116 cells assessed as reduction in cell viability at 10 ug/ml measured for 24 hrs by MTT assay relative to control; format: functional; details: dose 10 µg/ml
[22] = system: MCF7; assay: Anticancer activity against human MCF7 cells assessed as reduction in cell viability at 10 ug/ml measured for 24 hrs by MTT assay relative to control; format: functional; details: dose 10 µg/ml
[23] = system: HFF; assay: Anticancer activity against human HFF cells assessed as reduction in cell viability at 10 ug/ml measured for 24 hrs by MTT assay relative to control; format: functional; details: dose 10 µg/ml
[24] = system: HCT-116; assay: Anticancer activity against human HCT-116 cells assessed as reduction in cell viability at 50 ug/ml measured for 48 hrs by MTT assay relative to control; format: functional; details: dose 50 µg/ml
[25] = system: MCF7; assay: Anticancer activity against human MCF7 cells assessed as reduction in cell viability at 50 ug/ml measured for 48 hrs by MTT assay relative to control; format: functional; details: dose 50 µg/ml
[26] = system: HFF; assay: Anticancer activity against human HFF cells assessed as reduction in cell viability at 50 ug/ml measured for 48 hrs by MTT assay relative to control; format: functional; details: dose 50 µg/ml
[27] = system: HCT-116; assay: Anticancer activity against human HCT-116 cells assessed as reduction in cell viability at 10 ug/ml measured for 48 hrs by MTT assay relative to control; format: functional; details: dose 10 µg/ml
[28] = system: MCF7; assay: Anticancer activity against human MCF7 cells assessed as reduction in cell viability at 10 ug/ml measured for 48 hrs by MTT assay relative to control; format: functional; details: dose 10 µg/ml
[29] = system: HFF; assay: Anticancer activity against human HFF cells assessed as reduction in cell viability at 10 ug/ml measured for 48 hrs by MTT assay relative to control; format: functional; details: dose 10 µg/ml
[30] = system: MCF7; assay: Anticancer activity against human MCF7 cells; format: functional, cell-based
[31] = system: PC-3; assay: Anticancer activity against human PC-3 cells; format: functional, cell-based
[32] = system: DU-145; assay: Anticancer activity against human DU-145 cells; format: functional, cell-based
[33] = system: HepG2; assay: Anticancer activity against human HepG2 cells; format: functional, cell-based
[34] = Inhibition of TK (unknown origin); parameters: species or system Homo sapiens
[35] = system: DLD-1; assay: Anticancer activity against human DLD-1 cells; format: functional, cell-based
[36] = system: SW480; assay: Anticancer activity against human SW480 cells; format: functional, cell-based
[37] = system: SNU-C1; assay: Anticancer activity against human SNU-C1 cells; format: functional, cell-based
[38] = system: COLO 320; assay: Anticancer activity against human COLO 320 cells; format: functional, cell-based
[39] = system: SW837; assay: Anticancer activity against human SW837 cells; format: functional, cell-based
[40] = system: RKO; assay: Anticancer activity against human RKO cells; format: functional, cell-based
[41] = system: HT-29; assay: Anticancer activity against human HT-29 cells; format: functional, cell-based
[42] = system: HCT-116; assay: Anticancer activity against human HCT-116 cells; format: functional, cell-based
[43] = system: NCI-H460; assay: Antiproliferative activity against human NCI-H460 cells assessed as reduction in cell growth by MTT assay; format: functional, cell-based
[44] = system: NCI-H1299; assay: Antiproliferative activity against human NCI-H1299 cells assessed as reduction in cell growth by MTT assay; format: functional, cell-based
[45] = system: A549; assay: Antiproliferative activity against A549 cells assessed as reduction in cell growth by MTT assay; format: functional, cell-based; details: Homo sapiens
[46] = system: MCF7; assay: Antiproliferative activity against MCF7 cells assessed as reduction in cell growth by MTT assay; format: functional, cell-based; details: Homo sapiens
[47] = Antiproliferative activity against MRC5 cells assessed as reduction in cell growth by MTT assay; format: toxicity, cell-based; details: human
[48] = system: MCF7; assay: Cytotoxicity against human MCF7 cells after 24 hrs by MTT assay; format: functional, cell-based; details: MCF7, 24 h
[49] = system: HepG2; assay: Cytotoxicity against human HepG2 cells after 24 hrs by MTT assay; format: functional, cell-based; details: HepG2, 24 h
[50] = system: HCT-116; assay: Cytotoxicity against human HCT-116 cells after 24 hrs by MTT assay; format: functional, cell-based; details: HCT-116, 24 h
[51] = Cytotoxicity against human MCF-10A cells measured after 24 hrs by MTT assay; format: toxicity, cell-based

SMILES: CCOc1ccc(-c2nccn2-c2cc(OC)c(OC)c(OC)c2)cc1Cl
- IC50 [1]: 3.8 nM
- IC50 [2]: 0.4 nM
- IC50 [3]: 0.57 nM
- IC50 [4]: 0.7 nM
- IC50 [5]: 0.9 nM
- IC50 [6]: 1.2 nM
- IC50 [7]: 1.8 nM
- IC50 [8]: 870 nM

SMILES: O=C(O)c1ccc(C(=O)NCn2cc(CSc3nc(-c4ccccc4)c(-c4ccccc4)n3-c3ccccc3)nn2)cc1
- IC50 [9]: 4670 nM
- IC50 [10]: 16800 nM
- IC50 [11]: 6870 nM

SMILES: CCOC(=O)c1ccccc1-n1c(-c2c(O)[nH]c(=O)[nH]c2=O)cnc1C
- IC50 [12]: 53600 nM
- IC50 at 24 h [13]: > 100000 nM

SMILES: NS(=O)(=O)c1ccc(-n2c(-c3ccccc3Br)nc(-c3ccccc3)c2-c2ccccc2)cc1
- IC50 [14]: 2800 nM
- IC50 [15]: 2700 nM
- IC50 [16]: 2500 nM
- IC50 [17]: 3100 nM

SMILES: Nc1nc(-c2ccccc2)cn1/N=C/c1cnc2ccccc2n1
- Activity [18]: 70%
- Activity [19]: 64.7%
- Activity [20]: 35.7%
- Activity [21]: 46.6%
- Activity [22]: 41.1%
- Activity [23]: 7.1%
- Activity [24]: 66.6%
- Activity [25]: 83.3%
- Activity [26]: 37.5%
- Activity [27]: 50%
- Activity [28]: 47.3%
- Activity [29]: 33.3%

SMILES: Cc1nc([N+](=O)[O-])c(N2CCN(CCCBr)CC2)n1Cc1ccccc1
- IC50 [30]: 46200 nM
- IC50 [31]: 48600 nM
- IC50 [32]: 53700 nM
- IC50 [33]: 32100 nM

SMILES: COc1cccc2c1C=C(c1ncc(-c3ccc(OCc4ccccc4)cc3)[nH]1)CO2
- IC50 [34]: 4730 nM
- IC50 [35]: 370 nM
- IC50 [36]: 370 nM
- IC50 [37]: 370 nM
- IC50 [38]: 370 nM
- IC50 [39]: 370 nM
- IC50 [40]: 370 nM
- IC50 [41]: 370 nM
- IC50 [42]: 370 nM

SMILES: COc1ccccc1-c1nc(-c2ccccc2)c(-c2ccccc2)n1-c1ccc(S(N)(=O)=O)cc1
- IC50 [14]: 2400 nM
- IC50 [15]: 2100 nM
- IC50 [16]: 2200 nM
- IC50 [17]: 2400 nM

SMILES: CN(C)CCCOc1ccc(-c2nc(-c3ccc([N+](=O)[O-])o3)[nH]c2-c2ccc(OCCCN(C)C)cc2)cc1
- IC50 [43]: 6950 nM
- IC50 [44]: < 100 nM
- IC50 [45]: 6710 nM
- IC50 [46]: 6750 nM
- IC50 [47]: 7100 nM

SMILES: CCOC(=O)N1CCN(c2c([N+](=O)[O-])nc(CC)n2CC)CC1
- IC50 [30]: 29600 nM
- IC50 [31]: 49600 nM
- IC50 [32]: 42200 nM
- IC50 [33]: 5600 nM

SMILES: COc1ccc(-c2c[nH]c(=S)n2/N=C/c2ccccc2O)cc1
- IC50 [48]: 1070 nM
- IC50 [49]: 1300 nM
- IC50 [50]: 3990 nM
- IC50 at 24 h [51]: 27800 nM
